Test results taken from patent US20240050513A1, “COMPOSITION FOR PREVENTING, AMELIORATING, OR TREATING DISEASE CAUSED BY PROTEIN NITRATION […] WITH TERMINAL TYROSINE AS EFFECTIVE COMPONENT” (INDUSTRY-ACADEMIC COOPERATION FOUNDATION GYEONGSANG …, priority 2021, published 2024).

Assays:
[1] = tested on: superoxide dismutase (SOD); assay: Hippocampal SOD activity in ischemic stroke model; type: in vivo, Mongolian gerbils; details: hippocampus, 200 mg/kg i.p. once, twenty-four hours after reperfusion
Method: Three-month-old male Mongolian gerbils were induced with general anesthesia using 3% isoflurane and the anesthesia was maintained with 2.5% isoflurane gas. After sterilizing the neck area, a midline incision was made to expose both common carotid arteries, and microvessel clip was used to block the blood flow for 5 minutes, inducing cerebral ischemia to simulate a stroke. During the application of the microvessel clip, the body temperature was maintained at 37.0±0.5° C., and animals undergoing sham operation were used as the control group.
After inducing ischemia, the animal was, under reperfusion, intraperitoneally administered once with YQ peptide at a dose of 200 mg/kg. Two hours or twenty-four hours after the reperfusion, the animal was anesthetized with avertin. Then, the skull was quickly opened, and the brain was rapidly removed. The hippocampal tissue was collected and rapidly frozen in liquid nitrogen, then stored in a deep freezer. Subsequently, the activities of superoxide dismutase (SOD) and catalase (CAT) were measured by using SOD colorimetric activity kit and CAT colorimetric activity kit, respectively.

[2] = tested on: glutamine synthetase (GS); assay: GS activity and GS tyrosine nitration in PFC, chronic immobilization stress model; type: in vivo, C57BL/6 mice; details: stress group
Method: Using the prefrontal cortex (PFC) lysate samples from mice obtained after the completion of chronic immobilization stress, GS activity and GS expression level were measured by following the method described above.
Furthermore, the level of tyrosine nitration within GS was measured by using immunoprecipitation (IP)-WB. The immunoprecipitation analysis of tyrosine-nitrated GS was performed using an anti-nitrotyrosine antibody (ab61392, Abcam) and Protein A/G PLUS-Agarose (Santa Cruz) according to the manufacturer's protocol.

[3] = tested on: chronic immobilization stress C57BL/6 mice; assay: Cognitive function (ORT/OLT) in chronic immobilization stress model; type: in vivo; details: stress group, peptide-supplemented diet vs normal diet
Method: (§1) To analyze the long-term memory capacity of animals following the peptide diet of the present invention, both the object recognition test (ORT) and object location recognition test (OLT) were conducted (FIG. 1). The tests consisted of three phases: habituation, familiarization, and test. During the habituation phase, the animals were acclimated to the testing apparatus for 10 minutes per day over two days. On the third day at the familiarization phase, the animals were allowed to explore two identical objects for 10 minutes. Subsequently, on the fourth day at the test phase, one of the objects was replaced with a novel object, and the animals were allowed to explore for 10 minutes, with result recorded during the initial 5 minutes was used as test data. The object recognition test (ORT) index was calculated using the following formula.
(§2) Discrimination index=(N−F)/(N+F) • N: Time spent for exploring new object • F: Time spent for exploring familiar object
After 24 hours of performing the ORT, the location of the familiar object was changed, and the animals were allowed to explore for 5 minutes. During the total exploration time, the ratio of time spent exploring the object with a changed location was calculated to determine the object location recognition test (OLT) index.
A total of 28 seven-week-old male C57BL/6 mice were divided into two groups: a control group and a stress group. […]

3xTG-AD mice = assay: Cognitive function (ORT) and hippocampal ROS/RNS in Alzheimer's disease model; type: in vivo, mouse; details: 1xYQ diet
Method: as §1, §2
The cognitive function of a 2-month-old mouse 3xTG-AD, which is a mouse model of modified Alzheimer's disease gene, and a 2-month-old normal C57BL/6 mouse was examined. After the examination, both were divided into two groups, and they were fed with either a normal diet (ND) or a diet supplemented with tyrosine-containing peptide (1xYQ). […]

[4] = tested on: glutamatergic neurons of 3xTG-vGluT2-Cre::tdTomato mice; assay: sEPSC of glutamatergic neurons in mPFC of fluorescent labeled Alzheimer's disease model; type: in vivo, mouse; details: 1xYQ diet from 2 months, measured at 6 to 8 months
Method: At two months of age, 3xTG-vGluT2-Cre::tdTomato mice were fed with diet supplemented with tyrosine-containing peptide (1xYQ). At 6 to 8 months of age, the spontaneous excitatory postsynaptic current (sEPSC) was measured to evaluate the activity of glutamatergic neurons. For recording membrane currents, a 200 μm-thick brain cross-section was placed in a recording chamber filled with artificial cerebrospinal fluid at a rate of 1.5 to 2 ml/min, and, under a holding potential of −70 mV, whole-cell voltage clamp recordings were obtained from visually identified glutamatergic neurons in the medial prefrontal cortex (mPFC). Glutamatergic currents were isolated by the addition of picrotoxin (100 μM). All recordings were performed at 30±2° C., and, as the pipette solution, a solution containing 30 mM KCl, 5 mM CaCl2, 10 mM EGTA, 10 mM HEPES, 2 mM MgATP, 0.5 mM Na2GTP, and 5 mM phosphocreatine was used.

[5] = tested on: azoxymethane (AOM) hyperammonemia C57BL/6 mice; assay: Azoxymethane-induced hyperammonemia model; type: in vivo
Method: They were allowed free access to water and food. The mice were divided into four groups: (1) control group (Control), (2) hyperammonemia group administered with water (Veh+AOM), (3) hyperammonemia group administered with 100 mg/kg YQ peptide (YQ100+AOM), and (4) hyperammonemia group administered with 200 mg/kg YQ peptide (YQ200+AOM). YQ peptide was administered orally once a day for four consecutive days. On the fourth day, 2 hours after the last oral administration of YQ peptide, azoxymethane (AOM) at a dose of 100 mg/kg was intraperitoneally injected to induce hyperammonemia. To prevent dehydration 12 hours after AOM administration, 200 μl of physiological saline containing 0.5% glucose were injected into the abdominal cavity.
Ammonia is a primary metabolite of amino acids and nucleic acids, and the main enzymes involved in the conversion of ammonia into urea in urea cycle are found only in liver cells. In addition, the liver tissue is also rich in enzymes such as GS (glutamine synthetase) and SOD (superoxide dismutase), which help lower ammonia level, and catalase which removes reactive oxygen species. Therefore, a change in blood ammonia level as it travels from the liver to the brain through the bloodstream serves as an important indicator of hepatic encephalopathy. Accordingly, to measure the amount of blood ammonia, a PocketChem BA PA-4140 analyzer (Arkray, Japan), which is a single-wavelength reflectance measurement analyzer, was utilized. The analyzer measures the absorbance at 635 nm (LED) wavelength after the reaction 20 μl of blood with the test strip at room temperature for 3 minutes.
Western blot analysis was performed using an antibody against nitrotyrosine.

[6] = YQ200+AOM (200 mg/kg) vs veh+AOM, p<0.05

tyrosine-glutamine [YQ]
SOD activity [1]: activity increases
tyrosine nitration level of GS ([2]; IP-WB, peptide diet vs normal diet): statistically significant decrease
GS activity ([2]; peptide diet (330 mg/kg) vs normal diet): statistically significant increase
cognitive function [3]: enhanced cognitive function
cognitive function (ORT) (3xTG-AD mice; dementia animal model 3xTG-AD, 2 to 8 months of age): slight improvement
ROS/RNS level in the hippocampal tissues (3xTG-AD mice; dementia animal model): decrease
glutamatergic neuronal activity (sEPSC) [4]: increased
expression level of nitrotyrosine in liver tissues [5, 6]: statistically significant decrease
serum ammonia concentration [5, 6]: statistically significant decrease
increase in blood ammonia caused by AOM ([5]; YQ oral once a day four days (100 or 200 mg/kg)): significantly suppressed
nitrotyrosine protein level in the liver tissue ([5]; YQ oral once a day four days, after AOM): significantly reduced
